Test results as given in US12702649B2, “Method of treating cystic fibrosis airway disease” (priority 2016, dated 2026).
Entries after “also recorded” stand apart in the source; their conditions may differ. Like-named read-outs stand apart in the source and are kept apart here.

Tests used:
S. aureus [1] = test: CF sputum bacterial killing, bacteria-coated grids assay; assay type: cell-based, S. aureus (SH1000); details: for bacterial killing in human CF sputum: grid assay, compared to saline
Experimental: Adults diagnosed with CF were recruited. Patients were asked to swallow saliva and to expectorate all secretions during routine clinic visits. Sputum plugs were visually identified and separated from saliva, weighed and stored at −70° C. in small, tightly sealed containers to minimize water loss under needed. […] To guarantee adequate mixing of sputum with the different solutions, the mixture was homogenized (Sonic Dismembrator Model 100, Fisher Scientific) for 30 seconds. All experiments were conducted in a humidified chamber with constant 5% CO2.
To interrogate individual bacteria killing in CF sputum or in pigs, bacteria-coated grids assay were used (Pezzulo A A, Tang X X, Hoegger M J, Alaiwa M H, Ramachandran S, Moninger T O, et al. Reduced airway surface pH impairs bacterial killing in the porcine cystic fibrosis lung. Nature. 2012; 487(7405):109-13. Epub 2012/07/06. doi: 10.1038/nature11130. PubMed PMID: 22763554; PubMed Central PMCID: PMC3390761; Abou Alaiwa M H, Reznikov L R, Gansemer N D, Sheets K A, Horswill A R, Stoltz D A, et al. pH modulates the activity and synergism of the airway surface liquid antimicrobials beta-defensin-3 and LL-37. Proceedings of the National Academy of Sciences of the United States of America. 2014; 111(52):18703-8. doi: 10.1073/pnas.1422091112. PubMed PMID: 25512526; PubMed Central PMCID: PMC4284593). Gold grids (200 mesh, Ted Pella) were functionalized using a series of intervention: 100 mM 11-mercaptoundecanoic acid (MUA in 100% alcohol, Aldrich) for 60 min at room temperature, 1:1 mixture of 100 mM N-ethyl-N-(3-[…]) carbodiimide) (EDC) and 100 mM N-hydroxysuccinimide (NETS) for 30 min at room temperature, 0.1 mg/ml Neutravidin (Sigma) at 37° C. for 1 hour.
Two different strains of S. aureus were used (SH1000 a human strain for CF sputum killing studies and SA43 a porcine strain for pig studies). Bacteria were grown to mid-log phase, incubated with 0.2 mg/ml N-hydroxysulphosuccinimide (sulpho-NHS)-biotin for 60 min at room temperature, quenched with 100 mM glycine to bind excess free biotin and allowed to attach to Neutravidin-coated grids for 15 minutes prior to the experiment.
After bacteria-coated grids were exposed to pig trachea for 5 minutes or CF sputum for 15 minutes, they were immediately rinsed in phosphate buffered saline and stained with SYTO9/propidium iodide (Live/Dead BacLight Bacterial viability assay, Invitrogen), mounted on slides and imaged on a laser-scanning confocal microscope (Olympus FV1000). Live (green) and dead (red) bacteria were automatically counted using Image-based Tool for Counting Nuclei (ITCN 1.6, UCSB Center for Bio-Image Informatics, UC San Barbara) an ImageJ (U.S. National Institutes of Health, Bethesda, Maryland, USA) plugin.

[2] = test system: tracheal ASL of non-CF piglets; test: Tracheal ASL pH of non-CF (wild type) newborn piglets after aerosolized buffer; assay type: in vivo, pig
Excerpt: (§1) To measure pH in pigs in vivo, non-invasive dual lifetime referencing was used to interrogate a 3×3 mm planar optode (pH sensitive foil, PreSens GmbH) applied directly to the tracheal surface of anesthetized pigs (Pezzulo A A, Tang X X, Hoegger M J, Alaiwa M H, Ramachandran S, Moninger T O, et al. Reduced airway surface pH impairs bacterial killing in the porcine cystic fibrosis lung. Nature. 2012; 487(7405):109-13. Epub 2012/07/06. doi: 10.1038/nature11130. PubMed PMID: 22763554; PubMed Central PMCID: PMC3390761). pH-dependent polarized light phase shift was measured using a single channel pH meter (pH-1 mini; PreSens GmbH). The tip of the fiber optic pH meter was kept at the same constant distance from the tracheal surface in all samples and confirmed by recording the amplitude. Calibration before each set of measurements was done by measuring phase shift from flat filters soaked in standard pH buffers. All measurements were obtained in a humidified chamber at 37° C. and constant 5% CO2 to mimic physiologic conditions.
(§2) Pigs were initially sedated with Ketamine (20 mg/kg, IM injection) and Xylazine (2 mg/kg, IM injection) and anesthetized using Propofol (2 mg/kg, IV injection). The trachea was surgically exposed and accessed anteriorly. A small anterior window through the tracheal rings accessed a tracheal window to interventions and pH measurements. All studies obtained in a 100% humidified chamber at 37° C. and constant 5% CO2 to mimic physiologic conditions.

[3] = test system: nasal pH of healthy volunteers; test: Nasal pH of healthy human volunteers after instillation; assay type: in vivo; details: for nasal pH: 250 μl of 0.3 M solution
Experimental: (§3) Prior to each study the pH probe was calibrated in buffer solutions of pH 6, 7 and 8 (VWR, West Chester, PA). Voltage was recorded with an Oakton pH6+ meter (Cole-Palmer, Vernon Hills, IL) and corrected to temperature. The probe was positioned at 6 cm from the most caudal aspect of the columella. The probe remained in position until the readings were stable. All measurements were taken from the right nostril and by the same operator. Subjects on intranasal medications (steroids or anticholinergics) or with history of nasal or sinus surgery were excluded from the study.

human CF airway cultures = test: ASL viscosity in human CF airway cultures; assay type: cell-based
Excerpt: (A) Effect of saline or THAM on ASL viscosity in humanCF airway cultures. […] Data are mean±SEM. n=6 individual donors/group. * p<0.05, t-test.
Two approaches are used to investigate the viscoelastic properties of airway mucus. […] Second, in airway epithelial cell cultures from non-CF and CF newborn pig and human donors, mucus viscosity (±THAM) is estimated by measuring the diffusion of fluorescent FITC-dextran with a FRAP assay and ASL/mucus pH using the pH indicator SNARF-1 (FIG. 11D&13A). Viscosity is directly correlated to diffusion. If the viscosity is high, FITC-dextran will slowly diffuse to the photo-bleached ASL areas.

[4] = Buffering capacity by acid titration; assay type: physicochemical; details: 0.3 M tromethamine titrated with 0.1 M HCl
Experimental: 100 mM HCl was delivered into 5 mL of buffer at a rate of 0.2 ml/min. Titration was carried out to endpoint of pH 3. The volume of HCl delivered was recorded and used to calculate the acid equivalents needed to […] pH by 1 unit or buffering capacity.

mice = test system: mice
Excerpt: FIGS. 14A-14G. […] (A) BAL pH measured 3.5 hr after THAM inhalation. Mice were aerosolized with THAM (10× dose used in our prior human studies) or water (ctrl) in a whole-body exposure chamber for 3.5 hrs/d (5 d total). 3 d later mice were euthanized/studied. (B) BAL-total cell cts. (C) BAL-% alveolar macrophages. (D) BAL-LDH activity. […] (F) Airway resistance (FlexiVent). […] (G) Lung histology (HE). Data are mean±SEM. n=4-10/group. * p<0.05, t-test. Some SEM bars are hidden in mean bars.

human subjects = details: 24 h after aerosolized nasal delivery
Experimental: as §3

[5] = test system: nasal pH of subjects with cystic fibrosis (CF)
Experimental: as §3

S. aureus [6] = details: 15 minutes after aerosolized tromethamine, compared to NaCl
Experimental: Pigs were initially sedated with Ketamine (20 mg/kg, IM injection) and Xylazine (2 mg/kg, IM injection) and anesthetized using Propofol (2 mg/kg, IV injection). The trachea was surgically exposed and accessed anteriorly. A small anterior window through the tracheal rings accessed a tracheal window to interventions and pH measurements. All studies obtained in a 100% humidified chamber at 37° C. and constant 5% CO2 to mimic physiologic conditions. […]

[7] = test system: tracheal ASL of CF piglets; details: 15 minutes after aerosolized tromethamine
Excerpt: as §1
as §2, with “All studies obtained in a 100% humidified chamber at 37° C. and constant 5% CO2 to mimic physiologic conditions.” left out

[8] = test system: nasal epithelia of CF subjects
Excerpt: Methods Mol Biol. 2011; 741:69-86. doi: 10.1007/978-1-61779-117-8_6. PubMed PMID: 21594779; PubMed Central PMCID: PMCPMC3760477).

non-CF newborn pig = details: PARI LC-PLUS nebulizer, distal mainstem bronchi
Excerpt: THAM was aerosolized into a sedated, non-CF newborn pig with a PARI LC-PLUS® nebulizer, using a cone mask over the snout. After sedation, a pH probe was passed through the vocal cords and into the distal mainstem bronchi. ASL pH was continuously measured.

[9] = test system: human non-CF/CF airway epithelial cultures; details: THAM (1 μl), pH at 0 & 15 m
Experimental: FIGS. 15A-15B. […] (A) THAM (1 μl) was applied to human n non-CF/CF airway epithelial cultures. pH was measured at 0 & 15 m with SNARF. Data are mean±SEM. n=6 donors/group. * p<0.05, t-test.

[10] = intravenous, cited from earlier work
coagulase-negative = details: aerosolized, non-CF subjects; cited from earlier work

With `O=C([O-])O.[Na+]` [NaHCO3] the “effect of increasing HCO3− concentration on hBD-3 antimicrobial activity” value (S. aureus Xen-29; constant pH 7.5, absence of Ca2+ & Mg2+, 1 μg/ml hBD-3, NaHCO3 10-80 mM) was “slightly inhibited”, the “effect of increasing HCO3− concentration on LL-37 antimicrobial activity” value (S. aureus Xen-29; constant pH 7.5, absence of Ca2+ & Mg2+, 100 μm/ml LL-37, NaHCO3 10-80 mM) was “slightly inhibited” and the “effect of increasing HCO3− concentration on hBD-3 antimicrobial activity” value (S. aureus Xen-29; constant pH 7.5, presence of 1 mM Ca2+ & 1 mM Mg2+, 5 μg/ml hBD-3) was “inhibited”. For the same molecule, the “effect of increasing HCO3− concentration on LL-37 antimicrobial activity” value (S. aureus Xen-29; constant pH 7.5, presence of 1 mM Ca2+ & 1 mM Mg2+, 100 μm/ml LL-37) was “inhibited”, the “bacterial killing in human CF sputum” value (S. aureus [1]) was “improved bacterial killing to non-CF levels” and the “CF sputum ability to kill S. aureus” value (S. aureus [1]; sputum mixed 1:1 v/v with 200 mM NaHCO3, compared to equimolar NaCl, grids recovered after 15 minutes) was “increased the CF sputum ability to kill S. aureus”. For the same molecule, the “tracheal ASL pH” value ([2]; 250 μl of 200 mM NaHCO3 aerosolized onto exposed trachea) was “alkalinized ASL pH”, the “time for ASL pH to return to baseline” value ([2]; NaHCO3/HCO3− aerosol, non-CF piglet trachea) was ≤ 30 minutes and the “time for nasal pH to return to baseline” value ([3]; 250 μl of 2% (238 mM) NaHCO3) was ≤ 60 minutes. For the same molecule, the “nasal ASL pH” value ([3]; 250 μl of 2% (238 mM) NaHCO3 aerosolized into the nose) was “increased ASL pH”, the “effect of a higher concentration on the duration of the rise in nasal pH” value ([3]; NaHCO3 increased to 5% or 7%) was “no additional effect” and the ASL viscosity (human CF airway cultures) was “reduced viscosity”.
In the case of `NC(CO)(CO)CO` [tromethamine, tris(hydroxymethyl)aminomethane], the “additional buffering range at lower pH values” [4] is reported as 3-6 pH, the “airway (BAL) pH” value (mice; BAL pH 3.5 hr after THAM inhalation) is reported as “raised the airway pH” and the “BAL other proinflammatory cytokines, THAM vs water control” value (mice; mouse, in vivo) is reported as “no difference”. For the same molecule, the “clinical signs, gross pathology, BAL cell counts/cytokines/LDH, bronchoconstriction, histopathology” value (mice; mouse, in vivo) was “no adverse treatment related findings”, the “tolerability of THAM exposure” value (mice; mouse, in vivo) was “well tolerated” and the “effect on hBD-3 antimicrobial activity” value (S. aureus Xen-29; 10 mM tromethamine (pH 8.65) vs 10 mM xylitol (pH 7.02), 1 μg/ml hBD-3, ionic strength 125 mM) was “enhanced”. The “effect on LL-37 antimicrobial activity” value (S. aureus Xen-29; 10 mM tromethamine (pH 8.65) vs 10 mM xylitol (pH 7.02), 10 μg/ml LL-37, ionic strength 125 mM) was “enhanced”, the “bacterial killing in human CF sputum” value (S. aureus [1]) was “improved bacterial killing to non-CF levels; also recorded: acutely restored ASL bacterial killing” and the “ability of CF sputum to kill S. aureus” value (S. aureus [1]; sputum mixed 1:1 (w/v) with 300 mM tromethamine ± 1197 mM (7%) NaCl, compared to hypertonic saline alone) was “increased the ability of CF sputum to kill S. aureus”. The “tracheal ASL pH immediately after administration” value ([2]; 250 μl 0.3M tromethamine) was “raised pH”, the “tracheal ASL pH at 60 minutes” value ([2]; 250 μl 0.3M tromethamine, 60 minutes) was “still higher than baseline” and the adverse effects reported (human subjects) was “no adverse effects”. For the same molecule, the “nasal pH” value ([5]; 250 μl tromethamine) was “increased nasal pH”, the “duration of increased nasal pH” value ([5]; 250 μl tromethamine, 30 minutes was the total duration of the experiment) was 30 minutes and the “pH change at 30 min as share of the maximal pH response” value ([5]; 30 min after THAM aerosolization into the nose of people with CF) was ~ 80%. The ASL bacterial killing (S. aureus [6]; listed as THAM) was “acutely restored ASL bacterial killing”, the ASL bacterial killing (S. aureus [6]; listed as Tromethamine) was “enhanced bacterial killing” and the “tracheal ASL pH” value [7] was “increased pH”. The nasal voltage ([8]; baseline vs 30 min after 250 μl 0.3 M tromethamine) was “no effect”, the epithelial barrier integrity ([8]; inferred from nasal voltage) was “no disruption” and the “airway alkalinization over time” value (non-CF newborn pig) was “Prolonged Airway Alkalinization”. The “alkalinization of CF vs non-CF epithelia” value [9] was “Alkalinizes CF Epithelia Greater than Non-CF”, the “persistence of serum alkalinizing effect” value ([10]; serum) was 16 to 48 h and the “half-life when given intravenously” value [10] was “long half-life”. For the same molecule, the “nasal pH” value [3] was “alkalinized the nasal pH”, the “pH change at 30 min as share of the maximal pH response” value ([3]; 30 min after THAM aerosolization, non-CF noses) was 30% and the ASL viscosity (human CF airway cultures) was “reduced viscosity”.
In the case of `OC[C@@H](O)[C@H](O)[C@@H](O)CO` [xylitol], the “nasal coagulase-negative S. aureus colonization” value (coagulase-negative) is listed as “decreased” and the “nasal pH” value [3] is listed as “no effect”.
